The values that follow come from patent publication US5470827A, “Method of producing iturin A and antifungal agent for profound mycosis” (Higeta Shoyu Co., Ltd., priority 1993, dated 1995).

Converted amounts (≈) assume the structure as drawn. *1 amine or outer side, *2 acyl side, *3 side chain or, on linkers, in order; H or OH if unused. Where a SMILES comes first, the peptide text is derived from it. [ ]: non-standard residue; d: D form. ξ: configuration not given here. ξβ3hGly(tridecyl) = CCCCCCCCCCCCCC(CC(=O)[*:2])N[*:1]; ξβ3hGly(undecyl) = CCCCCCCCCCCC(CC(=O)[*:2])N[*:1]; X2 = CC(C)CCCCCCCCC[C@H](CC(=O)[*:2])N[*:1]; X6 = CCC(C)CCCCCCCCCCC(CC(=O)[*:2])N[*:1]; X4 = CC(C)CCCCCCCCCCC(CC(=O)[*:2])N[*:1]; X3 = CCC(C)CCCCCCCCC(CC(=O)[*:2])N[*:1]; X5 = CCCCCCCCCCCCC(CC(=O)[*:2])N[*:1]

Data set [1] can be described thus: Acute toxicity, single intravenous injection. The following applies: male mice. The format is in vivo, ddy-N mice. How it is done:
(§1) In the next test, mice of the same kind as mentioned above were used. Iturin A4 was dissolved in DMSO(dimethylsulfoxide)-castor oil-5% Glc solution, and the resulting solution was injected to the caudal vein of each of the five male mice once or plural times. For the single injection, the solution was administered to the mice each in an amount of 200 mg per kg of the body weight; and for the plural injections, it was administered to them 14 times each in an amount of 30 mg/kg/day. After the injection(s), the time-dependent mortality of the test mice was observed and the results shown in Tables 10 and 11 below were obtained.

Data set [2] deals with Mucor guilliermondii IFO 9403. Nature of the data set: minimum growth inhibiting concentration (MIC). The format is cell-based. As for the experimental part:
(§2) The microbicidal spectrum of iturin A, which is the active ingredient in the antifungal agent for profound mycosis of the present invention, may be obtained, for example, from the minimum growth inhibiting concentration (MIC) of iturin A to various fungi such as clinically-isolated strains, animal-infected fungi and others to be obtained on the basis of the method as designated by Japan Chemotherapy Association.
(§3) The antifungal activity of iturin A as produced in Example 1 was measured to identify its antifungal activity. Precisely, the minimum growth inhibiting concentration (MIC) of iturin A4 against fungi was measured on the basis of the method as designated by Japan Chemotherapy Association, and the results shown in Table 6 below were obtained.

The test system of data set [3] is Aspergillus fumigatus Tsukuba No. 12. Put plainly: minimum growth inhibiting concentration (MIC). It counts as cell-based. How it is done: as §2, §3
For data set [4], the system named is A. flavas IAM 2044. Put plainly: minimum growth inhibiting concentration (MIC). The format is cell-based. As for the experimental part:
as §2, §3

The test system of data set [5] is Candida albicans IFM 40002. Put plainly: minimum growth inhibiting concentration (MIC). The format is cell-based. As for the experimental part:
as §2, §3

Data set [6] deals with Cryptococcus neoformans IFM 40038. Put plainly: minimum growth inhibiting concentration (MIC). It counts as cell-based. How it is done:
as §2, §3

Data set [7] deals with Candida albicans IFM 40001. Put plainly: minimum growth inhibiting concentration (MIC). The format is cell-based. How it is done: as §2, §3
For data set [8], the system named is Cryptococcus neoformans IFM 40043. Put plainly: minimum growth inhibiting concentration (MIC). The format is cell-based. How it is done: as §2, §3
Data set [9] concerns C. krusei IFM 40019. Nature of the data set: minimum growth inhibiting concentration (MIC). The format is cell-based. As for the experimental part: as §2, §3
The test system of data set [10] is C. glabrata IFM 40065. Put plainly: minimum growth inhibiting concentration (MIC). It counts as cell-based. How it is done: as §2, §3
The test system of data set [11] is C. tropicalis IFM 40018. Nature of the data set: minimum growth inhibiting concentration (MIC). The format is cell-based. As for the experimental part:
as §2, §3

Data set [12] can be described thus: Acute Toxicity Test, oral single administration. It counts as in vivo, ddy-N mice. As to conditions: for Mortality (%) / Time-Dependent Mortality: oral 2,000 mg/kg once; for Time-Dependent Mortality: day 1; for LD50 (mg/kg): oral single administration. How it is done:
Iturin A4 obtained in Example 1 was dissolved in an injectable distilled water to prepare an aqueous 10% (w/v) solution of iturin A4 to be tested. The test solution was forcedly oral-administered once to five male and five female ddy-N mice, after having been fasted for 13 hours, by the use of a stomach probe. The test ddy-N mice were about 4-week age ones and were obtained from Nippon Medico-Chemical Animal Sources Laboratories Co., Ltd. Prior to the test, all the test mice were preliminarily bred in the laboratory for one week so as to confirm the healthy condition of them. Then, the about 5-week age mice were subjected to the test. The body weight of the test mice just before the test was 28 g (male mice) and from 18 to 22 g (female mice).
To each of the male and female mice, the test solution was administered in an amount of 20 ml per kg of the body weight, whereby 2,000 mg/kg of the test substance was administered to them.

Data set [13] relates to Candida albicans 7N. It counts as cell-based. As to conditions: for MIC: 7N. How it is done:
as §2, §3
In addition, MIC of each of iturin A2 to iturin A8 against Candida albicans 7N was measured in the same manner as above, and the results shown in Table 7 below were obtained.
Fungi used: Candida albicans 7N
Medium used: 0.5% Glucose, Yeastnitrogen base (made by DIFCO Co.)

The nature of data set [14]: Acute toxicity, plural intravenous injections. It counts as in vivo, ddy-N mice. As to conditions: male mice, intravenous 30 mg/kg/day × 14 times. As for the experimental part:
as §1

The mark [15] stands for this setting: oral 2,000 mg/kg, male and female mice.

For orientation: LD50 means the dose at which mortality reaches 50%. Low readings indicate a more toxic substance, high ones a less toxic substance. On to `CC(C)CCCCCCCCC[C@@H]1CC(=O)N[C@@H](CC(N)=O)C(=O)N[C@H](Cc2ccc(O)cc2)C(=O)N[C@H](CC(N)=O)C(=O)N[C@@H](CCC(N)=O)C(=O)N2CCC[C@H]2C(=O)N[C@H](CC(N)=O)C(=O)N[C@@H](CO)C(=O)N1` [Iturin A4, iturin A4] (cyclo(N[dY][dN]QP[dN]S[X2])), for which the 50% lethal dose (LD50) in data set [1] (single intravenous injection) is more than 200 mg/kg. For the same compound, the “Mortality (%)” value in data set [1] (single intravenous injection 200 mg/kg), in [12] (female mice), in [12] (male mice) and in [14] was 0% throughout. Besides, the “Time-Dependent Mortality” value in data set [1] (single intravenous injection 200 mg/kg, day 1) was 0/5; in data set [12] (female mice), 0/5; in data set [12] (male mice), 0/5; in [14] (14 days) it was 0/5; in data set [14] (day 1), 0/5. Further, the “MIC (μg/ml) of Iturin A4” value in [2] was 1.2 µg/mL; in data set [3], 6.25 µg/mL; in data set [4], 2.4 µg/mL; in [5], 1.56 µg/mL; in [6], 3.13 µg/mL; in [7] it was less than 0.05 µg/mL. The “MIC (μg/ml) of Iturin A4” value came to 0.78 µg/mL in data set [8]; 25 µg/mL in data set [9]; 6.25 µg/mL in [10]; 6.25 µg/mL in data set [11]; 25 µg/mL in data set [13] (Candida albicans 7N (Table 6)). For the same compound, the “LD50 (mg/kg)” value in [12] (female mice) and in data set [12] (male mice) was > 2,000 mg/kg each time. In addition, the “time until vitality came back to normal after the administration” value in data set [12] (setting [15]) worked out at 2 h. Besides, the “vitality of the test mice just after the administration” value in [12] (setting [15]) is “lowered slightly”.

For orientation: MIC means the least concentration at which growth counts as inhibited. A high value points to weaker potency. Turning to `CCCCCCCCCCCCCC1CC(=O)N[C@@H](CC(N)=O)C(=O)N[C@H](Cc2ccc(O)cc2)C(=O)N[C@H](CC(N)=O)C(=O)N[C@@H](CCC(N)=O)C(=O)N2CCC[C@H]2C(=O)N[C@H](CC(N)=O)C(=O)N[C@@H](CO)C(=O)N1` (stereo partly drawn) [Iturin A7, iturin A7] (cyclo(N[dY][dN]QP[dN]S[ξβ3hGly(tridecyl)])), the “MIC” value in data set [13] is 6.25 µg/mL (≈ 5.83 µM).

With `CCCCCCCCCCCC1CC(=O)N[C@@H](CC(N)=O)C(=O)N[C@H](Cc2ccc(O)cc2)C(=O)N[C@H](CC(N)=O)C(=O)N[C@@H](CCC(N)=O)C(=O)N2CCC[C@H]2C(=O)N[C@H](CC(N)=O)C(=O)N[C@@H](CO)C(=O)N1` (stereo partly drawn) [Iturin A2, iturin A2] (cyclo(N[dY][dN]QP[dN]S[ξβ3hGly(undecyl)])), in [13], the “MIC” value was 50 µg/mL (≈ 47.9 µM).

Turning to `CCC(C)CCCCCCCCCCC1CC(=O)N[C@@H](CC(N)=O)C(=O)N[C@H](Cc2ccc(O)cc2)C(=O)N[C@H](CC(N)=O)C(=O)N[C@@H](CCC(N)=O)C(=O)N2CCC[C@H]2C(=O)N[C@H](CC(N)=O)C(=O)N[C@@H](CO)C(=O)N1` (stereo partly shown) [Iturin A8, iturin A8] (cyclo(N[dY][dN]QP[dN]S[X6])), the minimal inhibitory concentration (MIC) in [13] is 12.5 µg/mL (≈ 11.5 µM).

On to `CCC(C)CCCCCCCCC1CC(=O)N[C@@H](CC(N)=O)C(=O)N[C@H](Cc2ccc(O)cc2)C(=O)N[C@H](CC(N)=O)C(=O)N[C@@H](CCC(N)=O)C(=O)N2CCC[C@H]2C(=O)N[C@H](CC(N)=O)C(=O)N[C@@H](CO)C(=O)N1` (stereo partly shown) [Iturin A3, iturin A3] (cyclo(N[dY][dN]QP[dN]S[X3])), for which the minimal inhibitory concentration (MIC) in data set [13] came to 50 µg/mL (≈ 47.3 µM).

Turning to `CC(C)CCCCCCCCCCC1CC(=O)N[C@@H](CC(N)=O)C(=O)N[C@H](Cc2ccc(O)cc2)C(=O)N[C@H](CC(N)=O)C(=O)N[C@@H](CCC(N)=O)C(=O)N2CCC[C@H]2C(=O)N[C@H](CC(N)=O)C(=O)N[C@@H](CO)C(=O)N1` (stereo partly shown) [Iturin A6, iturin A6] (cyclo(N[dY][dN]QP[dN]S[X4])), the minimum inhibitory concentration (MIC) in data set [13] amounted to 12.5 µg/mL (≈ 11.7 µM).

Regarding `CCCCCCCCCCCCC1CC(=O)N[C@@H](CC(N)=O)C(=O)N[C@H](Cc2ccc(O)cc2)C(=O)N[C@H](CC(N)=O)C(=O)N[C@@H](CCC(N)=O)C(=O)N2CCC[C@H]2C(=O)N[C@H](CC(N)=O)C(=O)N[C@@H](CO)C(=O)N1` (stereo partly shown) [Iturin A5, iturin A5] (cyclo(N[dY][dN]QP[dN]S[X5])), the “MIC” value in data set [13] turned out to be 25 µg/mL (≈ 23.6 µM).
